Measured values as given in PubChem BioAssay (NCI).
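All cell lines were grown in 96-well plates and treated with compound for 48 hours. At the GI50, growth is halved. TGI is the concentration that stops growth completely.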

What was measured:
Assay in all cases: NCI tumour cell line growth inhibition, 48 h
[1] = tested on: OVCAR-4 ovarian
[2] = tested on: HS 578T breast
[3] = tested on: SK-MEL-5 melanoma
[4] = tested on: DU-145 prostate
[5] = tested on: A549 NSCLC
[6] = tested on: SK-MEL-2 melanoma
[7] = tested on: COLO 205 colon
[8] = tested on: SNB-75 CNS
[9] = tested on: HOP-62 NSCLC
[10] = tested on: SF-539 CNS
[11] = tested on: PC-3 prostate
[12] = tested on: LOX IMVI melanoma
[13] = tested on: CCRF-CEM leukemia
[14] = tested on: OVCAR-8 ovarian
[15] = tested on: ACHN renal
[16] = tested on: HL-60(TB) leukemia
[17] = tested on: MCF7 breast
[18] = tested on: M14 melanoma
[19] = tested on: SNB-19 CNS
[20] = tested on: BT-549 breast
[21] = tested on: SF-295 CNS
[22] = tested on: IGROV1 ovarian
[23] = tested on: RPMI-8226 leukemia
[24] = tested on: A498 renal
[25] = tested on: SN12C renal
[26] = tested on: MOLT-4 leukemia
[27] = tested on: UO-31 renal
[28] = tested on: SK-OV-3 ovarian
[29] = tested on: MDA-MB-435
[30] = tested on: TK-10 renal
[31] = tested on: SR leukemia
[32] = tested on: SW-620 colon
[33] = tested on: HT29 colon
[34] = tested on: MALME-3M melanoma
[35] = tested on: HCC-2998 colon
[36] = tested on: HOP-92 NSCLC
[37] = tested on: OVCAR-3 ovarian
[38] = tested on: NCI-H23 lung
[39] = tested on: UACC-257 melanoma
[40] = tested on: EKVX NSCLC
[41] = tested on: OVCAR-5 ovarian
[42] = tested on: SF-268 CNS
[43] = tested on: T-47D breast
[44] = tested on: 786-0 renal
[45] = tested on: NCI-H522 lung
[46] = tested on: MDA-MB-231 breast
[47] = tested on: HCT-15 colon
[48] = tested on: NCI/ADR-RES ovarian
[49] = tested on: UACC-62 melanoma
[50] = tested on: NCI-H226 lung
[51] = tested on: CAKI-1 renal
[52] = tested on: KM12 colon
[53] = tested on: HCT-116 colon
[54] = tested on: SK-MEL-28 melanoma
[55] = tested on: RXF 393 renal
[56] = tested on: K-562 leukemia

O=c1[nH]cnc2c1ccn2C1OC(CO)C(O)C1O (configuration not stated)
GI50 [1]: 1.48 µM | TGI [1]: 28.7 µM | GI50 [2]: 14 µM | TGI [2]: > 100 µM | GI50 [3]: 6.1 µM | TGI [3]: 19.2 µM | GI50 [4]: 2.34 µM | TGI [4]: 23.8 µM | GI50 [5]: 7.53 µM | TGI [5]: > 100 µM | GI50 [6]: 3.04 µM | TGI [6]: 17.5 µM | GI50 [7]: 3.41 µM | TGI [7]: 26.5 µM | GI50 [8]: 3.8 µM | TGI [8]: > 100 µM | GI50 [9]: 6.7 µM | TGI [9]: > 100 µM | GI50 [10]: 10.7 µM | TGI [10]: > 100 µM | GI50 [11]: 3.35 µM | TGI [11]: > 100 µM | GI50 [12]: 2.18 µM | TGI [12]: 16 µM | GI50 [13]: 4.74 µM | TGI [13]: 96 µM | GI50 [14]: 2.3 µM | TGI [14]: 90.4 µM | GI50 [15]: 2.51 µM | TGI [15]: > 100 µM | GI50 [16]: 3.88 µM | TGI [16]: 21.1 µM | GI50 [17]: 2.41 µM | TGI [17]: > 100 µM | GI50 [18]: 4.36 µM | TGI [18]: > 100 µM | GI50 [19]: 14.8 µM | TGI [19]: > 100 µM | GI50 [20]: 5.86 µM | TGI [20]: > 100 µM | GI50 [21]: 8.6 µM | TGI [21]: > 100 µM | GI50 [22]: 4.32 µM | TGI [22]: 35.1 µM | GI50 [23]: 3.15 µM | TGI [23]: 21.5 µM | GI50 [24]: 4.72 µM | TGI [24]: 70.5 µM | GI50 [25]: 3.6 µM | TGI [25]: > 100 µM | GI50 [26]: 4.38 µM | TGI [26]: 20.3 µM | GI50 [27]: 2.11 µM | TGI [27]: 8.85 µM | GI50 [28]: 3.72 µM | TGI [28]: > 100 µM | GI50 [29]: 9.35 µM | TGI [29]: > 100 µM | GI50 [30]: 3.64 µM | TGI [30]: 51.3 µM | GI50 [31]: 5.38 µM | TGI [31]: 49.3 µM | GI50 [32]: 3.17 µM | TGI [32]: > 100 µM | GI50 [33]: 5.73 µM | TGI [33]: > 100 µM | GI50 [34]: 6.42 µM | TGI [34]: 32.8 µM | GI50 [35]: 7.66 µM | TGI [35]: > 100 µM | GI50 [36]: 2 µM | TGI [36]: 15.5 µM | GI50 [37]: 5.68 µM | TGI [37]: > 100 µM | GI50 [38]: 6.01 µM | TGI [38]: 65.4 µM | GI50 [39]: 12.3 µM | TGI [39]: 78 µM | GI50 [40]: 17.8 µM | TGI [40]: > 100 µM | GI50 [41]: 12 µM | TGI [41]: > 100 µM | GI50 [42]: 11.7 µM | TGI [42]: > 100 µM | GI50 [43]: 2.49 µM | TGI [43]: 80 µM | GI50 [44]: 3.56 µM | TGI [44]: > 100 µM | GI50 [45]: 7.32 µM | TGI [45]: 34.7 µM | GI50 [46]: 4.27 µM | TGI [46]: > 100 µM | GI50 [47]: 4.1 µM | TGI [47]: > 100 µM | GI50 [48]: 3.2 µM | TGI [48]: > 100 µM | GI50 [49]: 10.1 µM | TGI [49]: 27.8 µM | GI50 [50]: 16.1 µM | TGI [50]: > 100 µM | GI50 [51]: 2.57 µM | TGI [51]: > 100 µM | GI50 [52]: 8.89 µM | TGI [52]: > 100 µM | GI50 [53]: 2.29 µM | TGI [53]: 28.8 µM | GI50 [54]: 18.6 µM | TGI [54]: > 100 µM | GI50 [55]: 3.12 µM | TGI [55]: 22.9 µM | GI50 [56]: 5.86 µM | TGI [56]: > 100 µM
